Experimental data reported in US11613522B2, “Herbicidally active 3-phenylisoxazoline-5-carboxamides of tetrahydro- and dihydrofurancarboxamides” (BAYER AKTIENGESELLSCHAFT, priority 2017, dated 2023).

Key:
Assay type in all cases: in vivo
[1] = test system: Avena fatua; test: Pre-emergence herbicidal activity against AVEFA; details: dosage 80 g/ha, scored visually after about 3 weeks vs untreated controls
Source text: (§1) 1. Pre-emergence herbicidal action against harmful plants and crop plant compatibility Seeds of monocotyledonous and dicotyledonous weed plants and crop plants are placed in plastic or wood fiber pots and covered with soil. The compounds of the invention, formulated in the form of wettable powders (WP) or as emulsion concentrates (EC), are then applied onto the surface of the covering soil as aqueous suspension or emulsion with addition of 0.5% additive at a water application rate of 600 l/ha (converted). After the treatment, the pots are placed in a greenhouse and kept under good growth conditions for the trial plants. After about 3 weeks, the effect of the preparations is scored visually in comparison with untreated controls as percentages. For example, 100% activity=the plants have died, 0% activity=like control plants. [table]

[2] = test system: Setaria viridis; test: Pre-emergence herbicidal activity against SETVI; details: dosage 80 g/ha, scored visually after about 3 weeks vs untreated controls
Source text: as §1

[3] = test system: Polygonum convolvulus; test: Pre-emergence herbicidal activity against POLCO; details: dosage 80 g/ha, scored visually after about 3 weeks vs untreated controls
Source text: as §1

[4] = test system: Stellaria media; test: Pre-emergence herbicidal activity against STEME; details: dosage 80 g/ha, scored visually after about 3 weeks vs untreated controls
Source text: as §1

[5] = test system: Viola tricolor; test: Pre-emergence herbicidal activity against VIOTR; details: dosage 80 g/ha, scored visually after about 3 weeks vs untreated controls
Source text: as §1

[6] = test system: Alopecurus myosuroides; test: Post-emergence herbicidal activity against ALOMY; details: dosage 320 g/ha, rated visually after about 3 weeks
Experimental: (§2) [table] Seeds of monocotyledonous and dicotyledonous weeds and crop plants are placed in sandy loam in plastic or wood-fiber pots, covered with soil and cultivated in a greenhouse under controlled growth conditions. 2 to 3 weeks after sowing, the test plants are treated at the one-leaf stage. The compounds of the invention, formulated in the form of wettable powders (WP) or as emulsion concentrates (EC), are then sprayed onto the green parts of the plants as aqueous suspension or emulsion with addition of 0.5% additive at a water application rate of 600 l/ha (converted). After the test plants had been kept in the greenhouse under optimum growth conditions for about 3 weeks, the activity of the preparations is rated visually in comparison to untreated controls. For example, 100% activity=the plants have died, 0% activity=like control plants.

[7] = test system: Avena fatua; test: Post-emergence herbicidal activity against AVEFA; details: dosage 320 g/ha, rated visually after about 3 weeks
Experimental: as §2

[8] = test system: Echinochloa crus-galli; test: Post-emergence herbicidal activity against ECHCG; details: dosage 320 g/ha, rated visually after about 3 weeks
Experimental: as §2

[9] = test system: Setaria viridis; test: Post-emergence herbicidal activity against SETVI; details: dosage 320 g/ha, rated visually after about 3 weeks
Experimental: as §2

[10] = test system: Abutilon theophrasti; test: Post-emergence herbicidal activity against ABUTH; details: dosage 320 g/ha, rated visually after about 3 weeks
Experimental: as §2

[11] = test system: Amaranthus retroflexus; test: Post-emergence herbicidal activity against AMARE; details: dosage 320 g/ha, rated visually after about 3 weeks
Experimental: as §2

[12] = test system: Pharbitis purpurea; test: Post-emergence herbicidal activity against PHBPU; details: dosage 320 g/ha, rated visually after about 3 weeks
Experimental: as §2

[13] = test system: Polygonum convolvulus; test: Post-emergence herbicidal activity against POLCO; details: dosage 320 g/ha, rated visually after about 3 weeks
Experimental: as §2

[14] = test system: Stellaria media; test: Post-emergence herbicidal activity against STEME; details: dosage 320 g/ha, rated visually after about 3 weeks
Experimental: as §2

[15] = test system: Viola tricolor; test: Post-emergence herbicidal activity against VIOTR; details: dosage 320 g/ha, rated visually after about 3 weeks
Experimental: as §2

[16] = test system: Veronica persica; test: Post-emergence herbicidal activity against VERPE; details: dosage 320 g/ha, rated visually after about 3 weeks
Experimental: as §2

[17] = Pre-emergence herbicidal action against harmful plants (summary of the tables); details: 504 h, application rate of 0.08 kg of active substance or less per hectare, read-out: herbicidal action, pre-emergence treatment (very good activity)
Source text: as §1, with “plants.” for “plants. [table]”
As shown by the results, compounds according to the invention such as, for example, the compounds No. I-02 and other compounds from the tables (I-05, I-10, I-11, I-12, I-13, I-14, I-15, I-16, I-17, I-18, I-19, I-20, I-21, I-22, I-23, I-24, I-25, I-26, I-27, I-28, I-29) have, when used for pre-emergence treatment, very good activity (80% to 100% herbicidal action) against harmful plants such as Abutilon theophrasti, Alopecurus myosuroides, Amaranthus retroflexus, Avena fatua, Cyperus esculentus, Echinochloa crus-galli, Hordeum murinum, Lolium rigidum, Pharbitis purpurea, Polygonum convolvulus, Setaria viridis, Stellaria media, Veronica persica and Viola tricolor at an application rate of 0.08 kg of active substance or less per hectare.

[18] = test system: Alopecurus myosuroides; test: Pre-emergence herbicidal activity against ALOMY; details: dosage 80 g/ha, scored visually after about 3 weeks vs untreated controls
Source text: as §1

[19] = test system: Echinochloa crus-galli; test: Pre-emergence herbicidal activity against ECHCG; details: dosage 80 g/ha, scored visually after about 3 weeks vs untreated controls
Source text: as §1

[20] = test system: Lolium rigidum; test: Pre-emergence herbicidal activity against LOLRI; details: dosage 80 g/ha, scored visually after about 3 weeks vs untreated controls
Source text: as §1

[21] = test system: Amaranthus retroflexus; test: Pre-emergence herbicidal activity against AMARE; details: dosage 80 g/ha, scored visually after about 3 weeks vs untreated controls
Source text: as §1

[22] = test system: Veronica persica; test: Pre-emergence herbicidal activity against VERPE; details: dosage 80 g/ha
Source text: as §1

[23] = test system: Hordeum murinum; test: Pre-emergence herbicidal activity against HORMU; details: dosage 80 g/ha
Source text: as §1

[24] = test system: Lolium rigidum; test: Post-emergence herbicidal activity against LOLRI; details: dosage 320 g/ha, rated visually after about 3 weeks
Experimental: as §2

[25] = test system: Hordeum murinum; test: Post-emergence herbicidal activity against HORMU; details: dosage 320 g/ha, rated visually after about 3 weeks
Experimental: as §2

CNC(=O)[C@@H]1C[C@H](NC(=O)C2(C)CC(c3cc(F)cc(F)c3)=NO2)CO1 (relative stereo) [Example I-05, 3-(3,5-difluorophenyl)-5-methyl-N-[cis-5-(methylcarbamoyl)tetrahydrofuran-3-yl]-4H-isoxazole-5-carboxamide]
100%: pest or weed control at 80 g/ha ([1]; Avena fatua, 504 h, read-out: Pre-emergence herbicidal activity in % against AVEVA (AVEFA)) | pest or weed control at 80 g/ha ([5]; Viola tricolor, 504 h)
90%: pest or weed control at 80 g/ha ([2]; Setaria viridis, 504 h) | pest or weed control at 80 g/ha ([3]; Fallopia convolvulus, 504 h) | pest or weed control at 320 g/ha ([6]; Alopecurus myosuroides, 504 h) | pest or weed control at 320 g/ha ([8]; Echinochloa crus-galli, 504 h)
80%: pest or weed control at 80 g/ha ([4]; Stellaria media, 504 h) | pest or weed control at 320 g/ha ([7]; Avena fatua, 504 h) | pest or weed control at 320 g/ha ([9]; Setaria viridis, 504 h) | pest or weed control at 320 g/ha ([10]; Abutilon theophrasti, 504 h) | pest or weed control at 320 g/ha ([11]; Amaranthus retroflexus, 504 h) | pest or weed control at 320 g/ha ([12]; Ipomoea purpurea, 504 h) | pest or weed control at 320 g/ha ([13]; Fallopia convolvulus, 504 h) | pest or weed control at 320 g/ha ([14]; Stellaria media, 504 h) | pest or weed control at 320 g/ha ([15]; Viola tricolor, 504 h) | pest or weed control at 320 g/ha ([16]; Veronica persica, 504 h)
80 to 100%: pest or weed control at 80 g/ha [17]

CN(C)NC(=O)[C@@H]1C[C@H](NC(=O)[C@@]2(C)CC(c3cc(F)cc(F)c3)=NO2)CO1 [Example I-26]
80%: Pre-emergence herbicidal activity in % against VIOTR [5] | Pre-emergence herbicidal activity in % against VERPE [22] | Post-emergence herbicidal activity in % against SETVI [9] | Post-emergence herbicidal activity in % against ABUTH [10] | Post-emergence herbicidal activity in % against AMARE [11] | Post-emergence herbicidal activity in % against POLCO [13] | Post-emergence herbicidal activity in % against VERPE [16]
90%: Pre-emergence herbicidal activity in % against AVEVA (AVEFA) [1] | Pre-emergence herbicidal activity in % against ECHCG [19] | Pre-emergence herbicidal activity in % against SETVI [2] | Pre-emergence herbicidal activity in % against POLCO [3] | Pre-emergence herbicidal activity in % against HORMU [23] | Post-emergence herbicidal activity in % against PHBPU [12] | Post-emergence herbicidal activity in % against VIOTR [15]
100%: Pre-emergence herbicidal activity in % against ALOMY [18] | Pre-emergence herbicidal activity in % against LOLRI [20] | Pre-emergence herbicidal activity in % against AMARE [21] | Pre-emergence herbicidal activity in % against STEME [4] | Post-emergence herbicidal activity in % against ALOMY [6] | Post-emergence herbicidal activity in % against AVEFA [7] | Post-emergence herbicidal activity in % against ECHCG [8] | Post-emergence herbicidal activity in % against LOLRI [24] | Post-emergence herbicidal activity in % against STEME [14] | Post-emergence herbicidal activity in % against HORMU [25]
